According to patent US5891917A, “Certain acrylonitrile-sulfonamide derivatives” (Sugen, Inc., priority 1997, dated 1999):
Where two headings read alike, the source gives them in different places.

Key:
Insulin Receptor = target: T1, Insulin Receptor (Homo sapiens, UniProt P06213); assay: Cellular Insulin Receptor ELISA; assay type: cell-based; conditions: H25 cells, 100 nM insulin; read-out: ELISA DATA: IR
T1 construct: expressed in transfected cells; host or cells: H25 (NIH3T3 line overexpressing Insulin Receptor)
Procedure: Cellular Insulin Receptor ELISA (Version I)
The following protocol describes the cell line, reagents and procedures used to measure phosphotyrosine level on Insulin Receptor, which indicates Insulin Receptor tyrosine kinase activity.
MATERIALS AND REAGENTS (1). The cell line used in this assay is H25 (ATCC #CRL 8017), an NIH3T3 cell line which overexpresses Insulin Receptor.
(2). H25 cells are grown in an incubator with 5% CO2 at 37° C. The growth media is DMEM+10% FBS (heat inactivated)+2 mM L-Glutamine.
(3). For ELISA plate coating, the monoclonal anti-IR antibody named BBE is used. Antibodies are purified by the Enzymology Lab, SUGEN, Inc.
(1). The cells, grown in tissue culture dish (10 cm, Corning 25020-100) to 80-90% confluence, are harvested with Trypsin-EDTA (0.25%, 0.5 ml/D-100, GIBCO).
(2). Resuspend the cells in fresh DMEM+10% FBS+2 mM L-Glutamine, and transfer to 96-well tissue culture plate (Coming, 25806-96) at 20,000 cells/well (100 ul/well). Incubate for 1 day then replace medium to 0.01% serum medium (90/ul) and incubate in 5% CO2 and 37° C. overnight.
(1). Coat the ELISA plate (Corning 25805-96) with Anti-IR Antibody at 0.5 ug/well in 100 ul PBS at least 2 hours.
(2). Remove the coating solution, and replace with 100 ul Blocking Buffer, and shake for 30 minutes. Remove the blocking buffer and wash the plate just before adding lysate.
(1). The drugs are tested in serum-free condition.
(2). Dilute drug stock (in 100% DMSO) 1:10 with DMEM in 96-well poly-propylene plate, and transfer 10 ul/well of this solution to the cells to achieve final drug dilution 1:100, and final DMSO concentration of 1.0%. Incubate the cells in 5% CO2 at 37° C. for 2 hours.
(3). Prepare fresh cell lysis buffer (HNTG*) HNTG 2 ml EDTA 0.1 ml Na3VO4 0.1 ml Na4P2O7 0.1 ml H20 7.3 ml HNTG* 10 ml.
(4). After drug incubation for two hours, transfer 10 ul/well of 1 μM Insulin in PBS to the cells (Final Conc=100 nM), and incubate at 5% CO2 at 37° C. for 10 minutes.
(5). Remove media and add 100 ul/well HNTG* and shake for 10 minutes. Look at cells under microscope to see if they are adequately lysed.
(6). Use a 12-channel pipette to scrape the cells from the plate, and homogenize the lysate by repeat aspiration and dispense. Transfer all the lysate to the antibody coated ELISA plate [V.2.(2)], and shake for 1 hour.
(7). Remove the lysate, wash the plate, transfer anti-pTyr (1:3,000 with TBST) 100 ul/well, and shake for 30 minutes.
(8). Remove anti-pTyr, wash the plate, transfer detection antibody (1:3,000 with TBST) 100 ul/well, and shake for 30 minutes.
(9). Remove detection antibody, wash the plate, and transfer fresh ABTS/H2O2 (1.2 ul H2O2 to 10 ml ABTS) 100 ul/well to the plate to start color development.

3T3/IGF-1R cells = assay: IGF-1 Receptor Growth Assay (3T3/IGF-1R); assay type: cell-based
Procedure: IGF-1 Receptor Growth Assay
3T3/IGF-1 R (10% FBS/2 mM glutamine/DMEM)
Cell Plating--Trypsinize and count 3T3/IGF-1R and NIH 3T3 c7 cells. Dilute in growth media to 2000 cells/200 μl and seed flat bottom 96-well plates with 200 μl/well, one plate for two compounds for each cell line.
Compound preparation--Add DMSO to each compound to make 100 mM stock solutions.
Aliquot each compound to 3-4 sterile screw cap tubes and store at -20° C. After thawing, make sure the compound has gone completely back into solution. Throw away after 3 freeze/thaws.
3T3/IGF-1R cells--For each 96-well plate, make 15 ml of 10 nM IGF-1/0.5% FBS/2 mM glutamine/DMEM (30 μl of 5 μM IGF-1/15 ml).
Aliquot 1.5 ml 10 nM IGF-1/0.5% FBS to a sterile tube for each compound to be tested (the first time a compound is tested, use a 15 ml tube in case it is necessary to add extra medium to get it into solution).
Add 3 μl of 100 mM stock of each compound to a tube so 200 μM final. Shake or vortex until it goes into solution. If it is necessary to add additional medium, note the final concentration.
For the DMSO control, prepare 0.5 ml/plate of 0.2% DMSO/10 nM IGF-1/0.5% FBS (2 μl DMSO/ml).
For every two compounds, aliquot 130 μl 10 nM IGF-1/0.5% FBS to wells in columns 2-11 of a 96-well round bottom plate.
Add 260 μl of each compound to four wells in column 12.
Do 2-fold dilutions (130 μl) from columns 12 to 3 on each plate (column 2 will be for the untreated control), mixing thoroughly.
Remove medium from 3T3/IGF-1 R cells, one plate at a time.
Transfer 120 μl from each well on a compound dilution plate to the corresponding well of cells.
Add 120 μl 0.2% DMSO/10 nM IGF-1/0.5% FBS to four wells in column 1.
Add 120 μl 0.5% FBS (without IGF-1) to other four wells in column 1 for negative control.
Refeed--Repeat steps above, adding exactly the same IGF-1 and compound concentration to each well as before.
Analysis of cells--Look at wells with the highest concentrations for each compound to make sure it has not precipitated.
Detection--Follow the steps for fixing and staining described in the SOP for SRB Assays.
Data analysis--Find averages and standard deviations for each set of four OD's.
Using wells in column 2 (treated with IGF-1 but not compound) as 100%, calculate percent of control for each concentration of compound.
Determine the fold difference between the IGF-1-treated and untreated cells. It should be 2-3-fold.
Determine the percent of control for 0.2% DMSO.
Use a curve fit method to graph percent of control vs. log(molar concentration) and determine the IC50.

[1] = read-out: Growth Data: 3T3/IGF-1R-0.5% FBS
[2] = read-out: Growth Data: 3T3/IGF-1R-10% FBS

T1 sequence (P06213 763-1382 limits assumed, species assumed): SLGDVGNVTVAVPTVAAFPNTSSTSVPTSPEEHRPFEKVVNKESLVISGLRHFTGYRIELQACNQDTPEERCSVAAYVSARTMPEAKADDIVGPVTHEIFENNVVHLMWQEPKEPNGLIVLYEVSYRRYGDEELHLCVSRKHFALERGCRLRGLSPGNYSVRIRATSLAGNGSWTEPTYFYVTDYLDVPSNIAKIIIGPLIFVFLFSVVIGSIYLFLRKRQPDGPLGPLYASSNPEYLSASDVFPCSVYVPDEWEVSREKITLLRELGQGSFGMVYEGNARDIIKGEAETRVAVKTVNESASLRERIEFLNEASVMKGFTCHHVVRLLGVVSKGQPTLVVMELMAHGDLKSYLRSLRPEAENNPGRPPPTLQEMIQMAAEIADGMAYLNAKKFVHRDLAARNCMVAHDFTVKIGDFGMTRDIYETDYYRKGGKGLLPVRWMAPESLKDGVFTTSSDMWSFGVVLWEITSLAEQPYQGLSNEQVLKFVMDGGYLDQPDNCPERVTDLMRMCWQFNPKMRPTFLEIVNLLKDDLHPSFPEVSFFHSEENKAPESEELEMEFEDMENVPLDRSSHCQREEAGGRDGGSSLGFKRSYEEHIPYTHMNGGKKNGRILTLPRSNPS
T1 sequence (P06213 28-758 partner limits assumed, species assumed): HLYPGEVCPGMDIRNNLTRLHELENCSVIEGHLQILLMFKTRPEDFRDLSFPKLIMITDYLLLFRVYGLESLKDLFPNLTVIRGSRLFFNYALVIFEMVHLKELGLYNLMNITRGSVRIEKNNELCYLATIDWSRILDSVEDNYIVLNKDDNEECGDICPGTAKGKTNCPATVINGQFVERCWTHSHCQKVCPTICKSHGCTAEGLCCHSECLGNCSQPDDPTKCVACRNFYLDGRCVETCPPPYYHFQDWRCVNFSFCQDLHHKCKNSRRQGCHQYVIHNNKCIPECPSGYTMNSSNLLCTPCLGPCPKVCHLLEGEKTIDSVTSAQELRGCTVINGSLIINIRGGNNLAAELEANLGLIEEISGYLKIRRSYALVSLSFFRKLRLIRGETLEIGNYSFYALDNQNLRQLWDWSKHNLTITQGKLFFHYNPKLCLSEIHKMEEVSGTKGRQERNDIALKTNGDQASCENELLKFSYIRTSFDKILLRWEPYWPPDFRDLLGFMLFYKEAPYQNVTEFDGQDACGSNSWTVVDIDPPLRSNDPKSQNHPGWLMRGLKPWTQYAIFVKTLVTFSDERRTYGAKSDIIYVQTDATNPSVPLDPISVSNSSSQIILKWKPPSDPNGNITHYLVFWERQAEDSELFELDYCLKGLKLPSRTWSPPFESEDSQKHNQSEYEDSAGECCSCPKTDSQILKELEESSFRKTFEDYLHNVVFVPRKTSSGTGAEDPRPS

SMILES	IC50 (Insulin Receptor) [µM]	IC50 (3T3/IGF-1R cells; [1]) [µM]	IC50 (3T3/IGF-1R cells; [2]) [µM]
CC(C)c1cc(/C=C(\C#N)S(=O)(=O)c2ccccc2)cc(C(C)C)c1O [Compound 731]	12	25	92
CC(C)c1cc(/C=C(\C#N)S(=O)(=O)NCc2ccccc2)cc(C(C)C)c1O [Compound 732]	8.8	9.2	79
N#C/C(=C\c1ccc(O)cc1Cl)S(=O)(=O)NCc1ccccc1 [Compound 733]	> 100		
N#C/C(=C\c1ccc(O)cc1Cl)S(=O)(=O)NCCCc1ccccc1 [Compound 734]	51		
CC(C)c1cc(/C=C(\C#N)S(=O)(=O)Cc2cccc(C(F)(F)F)c2)cc(C(C)C)c1O [Compound 736]	15.1	14.7	74
CC(C)c1cc(/C=C(\C#N)S(=O)(=O)c2ccc(F)cc2)cc(C(C)C)c1O [Compound 741, (E)-3-(3,5-Diisopropyl-4-hydroxyphenyl)-2-(4-fluorophenylsulfonyl)acrylonitrile]	9.2	35	91
CC(C)c1cc(/C=C(\C#N)S(=O)(=O)/C(C#N)=C/c2cc(C(C)C)c(O)c(C(C)C)c2)cc(C(C)C)c1O [Compound 745]	27		
